Laboratory results reported in the NIST ThermoML archive (doi:10.1016/j.fluid.2009.04.009).
± gives the expanded uncertainty stated by the source.

Test: xn = mol fraction of the nth substance listed
Conditions: Liquid, Single crystal variable path ultrasonic interferometer operating at 2 MHz

CN(C)C=O [dimethylformamide] + CO
Conditions | speed of sound [m/s]
303 K, Frequency=2 MHz / Mass density=801.17 kg/m3, x1 = 0.4 | 1201.2 ± 0.4
303 K, Frequency=2 MHz / Mass density=818.7 kg/m3, x1 = 0.2 | 1133.8 ± 0.3
303 K, Frequency=2 MHz / Mass density=853.8 kg/m3, x1 = 0.6 | 1249.2 ± 0.3
303 K, Frequency=2 MHz / Mass density=888.88 kg/m3, x1 = 0.8 | 1339.4 ± 0.5
303 K, Frequency=2 MHz / Mass density=953.21 kg/m3, x1 = 1 | 1469.8 ± 0.8
308 K, Frequency=2 MHz / Mass density=794.11 kg/m3, x1 = 0.4 | 1187.4 ± 0.4
308 K, Frequency=2 MHz / Mass density=811.76 kg/m3, x1 = 0.2 | 1126.8 ± 0.3
308 K, Frequency=2 MHz / Mass density=852.94 kg/m3, x1 = 0.6 | 1243.4 ± 0.4
308 K, Frequency=2 MHz / Mass density=888.23 kg/m3, x1 = 0.8 | 1320 ± 0.3
308 K, Frequency=2 MHz / Mass density=952.94 kg/m3, x1 = 1 | 1433.2 ± 0.6
313 K, Frequency=2 MHz / Mass density=786.98 kg/m3, x1 = 0.4 | 1169.2 ± 0.4
313 K, Frequency=2 MHz / Mass density=798.81 kg/m3, x1 = 0.2 | 1110.8 ± 0.4
313 K, Frequency=2 MHz / Mass density=846.15 kg/m3, x1 = 0.6 | 1219.4 ± 0.5
313 K, Frequency=2 MHz / Mass density=881.65 kg/m3, x1 = 0.8 | 1313.2 ± 0.4
313 K, Frequency=2 MHz / Mass density=952.66 kg/m3, x1 = 1 | 1418 ± 0.4
318 K, Frequency=2 MHz / Mass density=773.8 kg/m3, x1 = 0.4 | 1152 ± 0.4
318 K, Frequency=2 MHz / Mass density=785.71 kg/m3, x1 = 0.2 | 1097.7 ± 0.2
318 K, Frequency=2 MHz / Mass density=833.33 kg/m3, x1 = 0.6 | 1208 ± 0.3
318 K, Frequency=2 MHz / Mass density=875 kg/m3, x1 = 0.8 | 1275.4 ± 0.5
318 K, Frequency=2 MHz / Mass density=952.38 kg/m3, x1 = 1 | 1402.2 ± 0.5
323 K, Frequency=2 MHz / Mass density=754.49 kg/m3, x1 = 0.4 | 1136 ± 0.3
323 K, Frequency=2 MHz / Mass density=778.44 kg/m3, x1 = 0.2 | 1095.4 ± 0.3
323 K, Frequency=2 MHz / Mass density=803.35 kg/m3, x1 = 0.6 | 1189 ± 0.3
323 K, Frequency=2 MHz / Mass density=868.26 kg/m3, x1 = 0.8 | 1257.2 ± 0.4
323 K, Frequency=2 MHz / Mass density=952.09 kg/m3, x1 = 1 | 1374.8 ± 0.6

CO [methanol] + CN(C)C=O
Conditions | speed of sound [m/s]
303 K, Frequency=2 MHz / Mass density=771.9 kg/m3, x2 = 0 | 1089 ± 0.5
308 K, Frequency=2 MHz / Mass density=764.7 kg/m3, x2 = 0 | 1069.6 ± 0.4
313 K, Frequency=2 MHz / Mass density=757.4 kg/m3, x2 = 0 | 1057.2 ± 0.4
318 K, Frequency=2 MHz / Mass density=750 kg/m3, x2 = 0 | 1033.2 ± 0.5
323 K, Frequency=2 MHz / Mass density=718.6 kg/m3, x2 = 0 | 1008 ± 0.3
